Where a name gives a salt, the structure may show the parent alone.
SMILES | melting point
COc1cccc2c1CC(N(CCCc1c[nH]c3ccc(F)cc13)CC1CC1)CO2 (centres unmarked) (as salt: hydrochloride) [Compound 37, N-(cyclopropylmethyl)-N-[3-(5-fluoro-1H-indol-3-yl)propyl]-N-(5-methoxy-3,4-dihydro-2H-chromen-3-yl)amine] | 114 °C (dec.)
COc1cccc2c1CC(N(CCCc1c[nH]c3ccccc13)C1CCC1)CO2 (centres unmarked) (as salt: hydrochloride) [Compound 44, N-cyclobutyl-N-[3-(1H-indol-3-yl)propyl]-N-(5-methoxy-3,4-dihydro-2H-chromen-3-yl)amine] | 113 to 117 °C
CCCN(CCc1c[nH]c2ccc(F)cc12)C1CCc2cccc(OC)c2C1 (centres unmarked) (as salt: hydrochloride) [Compound 48, N-[2-(5-fluoro-1H-indol-3-yl)ethyl]-N-(8-methoxy-1,2,3,4-tetrahydronaphthalen-2-yl)-N-propylamine] | 105 °C (dec.)
CCN(CCc1c[nH]c2ccc(F)cc12)C1CCc2cccc(OC)c2C1 (centres unmarked) (as salt: hydrochloride) [Compound 49, N-ethyl-N-[2-(5-fluoro-1H-indol-3-yl)ethyl]-N-(8-methoxy-1,2,3,4-tetrahydronaphthalen-2-yl)amine] | 114 °C (dec.)
CCCN(CCCc1c[nH]c2ccccc12)C1CCc2cccc(OC)c2C1 (centres unmarked) (as salt: hydrochloride) [Compound 50, N-[3-(1H-indol-3-yl)propyl]-8-methoxy-N-propyl-1,2,3,4-tetrahydronaphthalen-2-amine] | 108 °C (dec.)
CCCN(CCCc1c[nH]c2ccc(F)cc12)C1CCc2c(F)ccc(OC)c2C1 (centres unmarked) (as salt: hydrochloride) [Compound 51, N-[3-(5-fluoro-1H-indol-3-yl)propyl]-N-(5-fluoro-8-methoxy-1,2,3,4-tetrahydronaphthalen-2-yl)-N-propylamine] | 107 °C (dec.)
NC(=O)c1ccc(F)c2c1CC(N(CCCc1c[nH]c3cc(F)ccc13)CC1CC1)CO2 (centres unmarked) (as salt: hydrochloride) [Compound 52a, 3-{(cyclopropylmethyl)[3-(6-fluoro-1H-indol-3-yl)propyl]amino}-8-fluorochromane-5-carboxamide] | 123 °C (dec.)
NC(=O)c1ccc(F)c2c1CC(N(CCCc1c[nH]c3cc(F)ccc13)C1CCC1)CO2 (centres unmarked) (as salt: hydrochloride) [Compound 53, 3-{cyclobutyl[3-(6-fluoro-1H-indol-3-yl)propyl]amino}-8-fluorochromane-5-carboxamide] | 126 °C (dec.)
O=C(O)c1ccc(F)c2c1CC(N(CCCc1c[nH]c3ccc(F)cc13)C1CCC1)CO2 (centres unmarked) (as salt: hydrochloride) [Compound 56, 3-{cyclobutyl[3-(5-fluoro-1H-indol-3-yl)propyl]amino}-8-fluorochromane-5-carboxylic acid] | 140 °C (dec.)
COC(=O)c1ccc(F)c2c1CC(NCCCCc1c[nH]c3ccc(F)cc13)CO2 (centres unmarked) (as salt: hydrochloride) [Compound 57, Methyl 8-fluoro-3-{[4-(5-fluoro-1H-indol-3-yl)butyl]amino}chromane-5-carboxylate] | 228 °C (dec.)
COC(=O)c1ccc(F)c2c1C[C@H](NCCCCc1c[nH]c3ccc(F)cc13)CO2 (as salt: hydrochloride) [Compound 57a, Methyl (3S)-8-fluoro-3-{[4-(5-fluoro-1H-indol-3-yl)butyl]amino}chromane-5-carboxylate] | 240 °C (dec.)
COC(=O)c1ccc(F)c2c1C[C@@H](NCCCCc1c[nH]c3ccc(F)cc13)CO2 (as salt: hydrochloride) [Compound 57b, methyl (3R)-8-fluoro-3-{[4-(5-fluoro-1H-indol-3-yl)butyl]amino}chromane-5-carboxylate] | 240 °C (dec.)
COC(=O)c1ccc(F)c2c1CC(N(CCCCc1c[nH]c3ccc(F)cc13)C1CCC1)CO2 (centres unmarked) (as salt: hydrochloride) [Compound 58, Methyl 3-{cyclobutyl[4-(5-fluoro-1H-indol-3-yl)butyl]amino}-8-fluorochromane-5-carboxylate] | 115 °C (dec.)
COC(=O)c1ccc(F)c2c1C[C@H](N(CCCCc1c[nH]c3ccc(F)cc13)C1CCC1)CO2 (as salt: hydrochloride) [Compound 58a, Methyl (3S)-3-{cyclobutyl[4-(5-fluoro-1H-indol-3-yl)butyl]amino}-8-fluorochromane-5-carboxylate] | 209 °C (dec.)
COC(=O)c1ccc(F)c2c1C[C@@H](N(CCCCc1c[nH]c3ccc(F)cc13)C1CCC1)CO2 (as salt: hydrochloride) [Compound 58b, Methyl (3R)-3-{cyclobutyl[4-(5-fluoro-1H-indol-3-yl)butyl]amino}-8-fluorochromane-5-carboxylate] | 209 °C (dec.)
CNC(=O)c1ccc(F)c2c1CC(N(CCCc1c[nH]c3ccc(F)cc13)C1CCC1)CO2 (centres unmarked) (as salt: hydrochloride) [Compound 59, 3-{cyclobutyl[3-(5-fluoro-1H-indol-3-yl)propyl]amino}-8-fluoro-N-methylchromane-5-carboxamide] | 132 °C (dec.)
CCNC(=O)c1ccc(F)c2c1CC(N(CCCc1c[nH]c3ccc(F)cc13)C1CCC1)CO2 (centres unmarked) (as salt: hydrochloride) [Compound 60, 3-{cyclobutyl[3-(5-fluoro-1H-indol-3-yl)propyl]amino}-N-ethyl-8-fluorochromane-5-carboxamide] | 130 °C (dec.)
CCCNC(=O)c1ccc(F)c2c1CC(N(CCCc1c[nH]c3ccc(F)cc13)C1CCC1)CO2 (centres unmarked) (as salt: hydrochloride) [Compound 61, 3-{cyclobutyl[3-(5-fluoro-1H-indol-3-yl)propyl]amino}-8-fluoro-N-propylchromane-5-carboxamide] | 67 °C (dec.)
CCCCNC(=O)c1ccc(F)c2c1CC(N(CCCc1c[nH]c3ccc(F)cc13)C1CCC1)CO2 (centres unmarked) (as salt: hydrochloride) [Compound 62, N-butyl-3-{cyclobutyl[3-(5-fluoro-1H-indol-3-yl)propyl]amino}-8-fluorochromane-5-carboxamide] | 106 °C (dec.)
CC(C)NC(=O)c1ccc(F)c2c1CC(N(CCCc1c[nH]c3ccc(F)cc13)C1CCC1)CO2 (centres unmarked) (as salt: hydrochloride) [Compound 63, 3-{cyclobutyl[3-(5-fluoro-1H-indol-3-yl)propyl]amino}-8-fluoro-N-isopropylchromane-5-carboxamide] | 127 °C (dec.)
O=C(NC1CC1)c1ccc(F)c2c1CC(N(CCCc1c[nH]c3ccc(F)cc13)C1CCC1)CO2 (centres unmarked) (as salt: hydrochloride) [Compound 64, 3-{cyclobutyl[3-(5-fluoro-1H-indol-3-yl)propyl]amino}-N-cyclopropyl-8-fluorochromane-5-carboxamide] | 134 °C (dec.)
O=C(NC1CCC1)c1ccc(F)c2c1CC(N(CCCc1c[nH]c3ccc(F)cc13)C1CCC1)CO2 (centres unmarked) (as salt: hydrochloride) [Compound 65, N-cyclobutyl-3-{cyclobutyl[3-(5-fluoro-1H-indol-3-yl)propyl]amino}-8-fluorochromane-5-carboxamide] | 135 °C (dec.)

The remaining lines, values ahead:

melting point | SMILES
86 °C (dec.) | COc1cccc2c1CC(N(CCCc1cn(C)c3ccc(F)cc13)CC1CC1)CO2 (centres unmarked) (as salt: hydrochloride) [Compound 38, N-(cyclopropylmethyl)-N-[3-(5-fluoro-1-methyl-1H-indol-3-yl)propyl]-N-(5-methoxy-3,4-dihydro-2H-chromen-3-yl)amine]
112 °C (dec.) | COc1cccc2c1CC(N(CCCc1c[nH]c3ccc(F)cc13)C1CCCC1)CO2 (centres unmarked) (as salt: hydrochloride) [Compound 39, N-cyclopentyl-N-[3-(5-fluoro-1H-indol-3-yl)propyl]-N-(5-methoxy-3,4-dihydro-2H-chromen-3-yl)amine]
105 °C (dec.) | COc1cccc2c1CC(N(CCCc1c[nH]c3ccc(F)cc13)C(C)C)CO2 (centres unmarked) (as salt: hydrochloride) [Compound 40, N-[3-(5-fluoro-1H-indol-3-yl)propyl]-N-isopropyl-N-(5-methoxy-3,4-dihydro-2H-chromen-3-yl)amine]
115 °C (dec.) | COc1cccc2c1CC(N(CCCc1c[nH]c3ccc(F)cc13)C1CC1)CO2 (centres unmarked) (as salt: hydrochloride) [Compound 41, N-cyclopropyl-N-[3-(5-fluoro-1H-indol-3-yl)propyl]-N-(5-methoxy-3,4-dihydro-2H-chromen-3-yl)amine]
115 °C (dec.) | COc1cccc2c1CC(N(CCCc1c[nH]c3ccc(F)cc13)CC1CCC1)CO2 (centres unmarked) (as salt: hydrochloride) [Compound 42, N-(cyclobutylmethyl)-N-[3-(5-fluoro-1H-indol-3-yl)propyl]-N-(5-methoxy-3,4-dihydro-2H-chromen-3-yl)amine]
107 to 110 °C | COc1cccc2c1CC(N(CCCc1c[nH]c3ccccc13)CC1CC1)CO2 (centres unmarked) (as salt: hydrochloride) [Compound 43, N-(cyclopropylmethyl)-N-[3-(1H-indol-3-yl)propyl]-N-(5-methoxy-3,4-dihydro-2H-chromen-3-yl)amine]
123 to 127 °C (dec.) | COc1cccc2c1CC(N(CCCc1c[nH]c3ccc(C#N)cc13)CC1CC1)CO2 (centres unmarked) (as salt: hydrochloride) [Compound 45, 3-{3-[(cyclopropylmethyl)(5-methoxy-3,4-dihydro-2H-chromen-3-yl)amino]propyl}-1H-indole-5-carbonitrile]
133 to 137 °C | COc1cccc2c1CC(N(CCCc1c[nH]c3ccc(C#N)cc13)C1CCC1)CO2 (centres unmarked) (as salt: hydrochloride) [Compound 46, 3-{3-[cyclobutyl(5-methoxy-3,4-dihydro-2H-chromen-3-yl)amino]propyl}-1H-indole-5-carbonitrile]
107 °C (dec.) | CCCN(CCCc1c[nH]c2ccc(F)cc12)[C@H]1CCc2cccc(OC)c2C1 (as salt: hydrochloride) [Compound 47a, (−)-N-[3-(5-fluoro-1H-indol-3-yl)propyl]-8-methoxy-N-propyl-1,2,3,4-tetrahydronaphthalen-2-amine]
110 °C (dec.) | CCCN(CCCc1c[nH]c2ccc(F)cc12)[C@@H]1CCc2cccc(OC)c2C1 (as salt: hydrochloride) [Compound 47b, (2R)-N-[3-(5-fluoro-1H-indol-3-yl)propyl]-8-methoxy-N-propyl-1,2,3,4-tetrahydronaphthalen-2-amine]
